Laboratory results reported in patent US10562850B2, “Human plasma kallikrein inhibitors” (priority 2015, dated 2020).

Target: human plasma kallikrein (Homo sapiens (Human), UniProt P03952)
Test: Plasma Kallikrein Activity Assay (chromogenic substrate S2302)
Type: biochemical
Details: 2 nM kallikrein, 80 μM S2302, 30° C., pH 7.8; Cheng-Prusoff
Experimental: Plasma Kallikrein Activity Assay.
The effect of compounds of the invention on human plasma kallikrein activity was determined using the chromogenic substrates (DiaPharma Group, Inc., West Chester, Ohio, USA). In these experiments, 2 nM kallikrein (Enzyme Research Laboratories, South Bend, Ind., USA) was incubated with 80 μM S2302 (H-D-Pro-Phe-Arg-p-nitroaniline) in the absence or presence of increasing concentrations of compounds of the invention in a final volume of 200 μL Tris-HCl buffer (200 mM NaCl; 2.5 mM CaCl2; 50 mM Tris-HCl, pH 7.8).
After incubation at 30° C., the activity of kallikrein was measured as a change in absorbance at OD 405 nm using BioTek PowerWave X340 Microplate Reader (Winooski, Vt., USA). Data were analyzed using SigmaPlot software (Systat Software, Inc., San Jose, Calif., USA) (Four Parameter Logistic Curve). Ki values for the inhibitors were determined using the Cheng-Prusoff equation (Biochem. Pharmacol. 1973, 22, 3099).

Sequence of human plasma kallikrein (P03952 391-638): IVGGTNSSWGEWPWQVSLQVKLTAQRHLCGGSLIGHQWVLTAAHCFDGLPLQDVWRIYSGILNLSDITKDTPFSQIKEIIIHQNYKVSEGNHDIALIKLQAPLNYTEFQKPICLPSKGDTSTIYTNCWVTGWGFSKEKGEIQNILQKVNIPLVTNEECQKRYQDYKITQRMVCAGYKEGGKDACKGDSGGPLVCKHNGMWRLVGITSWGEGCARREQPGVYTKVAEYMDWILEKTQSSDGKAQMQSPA
Sequence of human plasma kallikrein (P03952 20-390 partner): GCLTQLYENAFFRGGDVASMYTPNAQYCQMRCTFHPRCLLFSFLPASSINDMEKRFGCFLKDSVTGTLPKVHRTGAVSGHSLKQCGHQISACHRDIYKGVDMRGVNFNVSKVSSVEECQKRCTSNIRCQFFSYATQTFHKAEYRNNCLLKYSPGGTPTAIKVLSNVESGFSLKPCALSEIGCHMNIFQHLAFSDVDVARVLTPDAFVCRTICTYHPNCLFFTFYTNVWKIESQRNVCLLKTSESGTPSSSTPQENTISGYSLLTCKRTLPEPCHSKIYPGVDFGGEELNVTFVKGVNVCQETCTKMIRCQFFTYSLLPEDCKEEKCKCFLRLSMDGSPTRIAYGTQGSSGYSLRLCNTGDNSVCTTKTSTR

O=C(Nc1cc(C(NCC2CC2)c2ccccc2)ccc1F)[C@H]1C[C@@H](O)CN1C(=O)Nc1ccc(Cl)cc1 (stereo partly drawn) [Compound 1p, (2R,4R)-N1-(4-chlorophenyl)-N2-(5-(((cyclopropylmethyl)amino)(phenyl)methyl)-2-fluorophenyl)-4-hydroxypyrrolidine-1,2-dicarboxamide]
Ki: > 100 nM

O=C(Nc1ccccc1F)[C@H]1C[C@@H](O)CN1C(=O)Nc1ccc(Cl)cc1 [Compound 2a, (2R,4R)-N1-(4-chlorophenyl)-N2-(2-fluorophenyl)-4-hydroxypyrrolidine-1,2-dicarboxamide]
Ki: > 100 nM

O=C(Nc1cc(C(NCC2CC2)c2ccccc2)ccc1F)[C@H]1C[C@@H](O)CN1C(=O)Nc1ccc(Cl)cc1 (stereo partly drawn) [Compound 3a, (2R,4R)-N1-(4-chlorophenyl)-N2-(5-((+)-(cyclopropylmethylamino)(phenyl)methyl)-2-fluorophenyl)-4-hydroxypyrrolidine-1,2-dicarboxamide]
Ki: 50 to 100 nM

CC(C)(C)[S@@+]([O-])NC(CCC1CC1)(c1cccc(C#N)c1)c1ccc(F)c(NC(=O)[C@H]2C[C@@H](O)CN2C(=O)Nc2ccc(Cl)cc2)c1 (stereo partly drawn) [Compound 4f, (2R,4R)-N1-(4-chlorophenyl)-N2-(5-((−)-1-(3-cyanophenyl)-3-cyclopropyl-1-((R)-1,1-dimethylethylsulfinamido)propyl)-2-fluorophenyl)-4-hydroxypyrrolidine-1,2-dicarboxamide]
Ki: 50 to 100 nM

N#Cc1cccc(C(N)(CCC2CC2)c2ccc(F)c(NC(=O)[C@H]3C[C@@H](O)CN3C(=O)Nc3ccc(Cl)cc3)c2)c1 (stereo partly drawn) [Compound 4g, (2R,4R)-N2-(5-((+)-1-amino-1-(3-cyanophenyl)-3-cyclopropylpropyl)-2-fluorophenyl)-N1-(4-chlorophenyl)-4-hydroxypyrrolidine-1,2-dicarboxamide]
Ki: 50 to 100 nM

CC(C)(C)[S@@+]([O-])NC(CCC1CC1)(c1cccc(C#N)c1)c1ccc(F)c(NC(=O)[C@@H]2C[C@@H](O)CN2C(=O)Nc2ccc(Cl)cc2)c1 (stereo partly drawn) [Compound 5d, (2S,4R)-N1-(4-chlorophenyl)-N2-(5-((−)-1-(3-cyanophenyl)-3-cyclopropyl-1-((R)-1,1-dimethylethylsulfinamido)propyl)-2-fluorophenyl)-4-hydroxypyrrolidine-1,2-dicarboxamide]
Ki: > 100 nM

N#Cc1cccc(C(N)(CCC2CC2)c2ccc(F)c(NC(=O)[C@@H]3C[C@@H](O)CN3C(=O)Nc3ccc(Cl)cc3)c2)c1 (stereo partly drawn) [Compound 5e, (2S,4R)-N2-(5-((−)-1-amino-1-(3-cyanophenyl)-3-cyclopropylpropyl)-2-fluorophenyl)-N1-(4-chlorophenyl)-4-hydroxypyrrolidine-1,2-dicarboxamide]
Ki: > 100 nM

CO[C@@H]1C[C@H](C(=O)Nc2cc(C(CCC3CC3)(N[S@+]([O-])C(C)(C)C)c3cccc(C#N)c3)ccc2F)N(C(=O)N(C)c2ccc(Cl)cc2)C1 (stereo partly drawn) [Compound 6c, (2R,4R)-N1-(4-chlorophenyl)-N2-(5-((−)-1-(3-cyanophenyl)-3-cyclopropyl-1-((R)-1,1-dimethylethylsulfinamido)propyl)-2-fluorophenyl)-4-methoxy-N1-methylpyrrolidine-1,2-dicarboxamide]
Ki: > 100 nM

CO[C@@H]1C[C@@H](C(=O)Nc2cc(C(CCC3CC3)(N[S@+]([O-])C(C)(C)C)c3cccc(C#N)c3)ccc2F)N(C(=O)N(C)c2ccc(Cl)cc2)C1 (stereo partly drawn) [Compound 6d, (2S,4R)-N1-(4-chlorophenyl)-N2-(5-(1-(3-cyanophenyl)-3-cyclopropyl-1-((R)-1,1-dimethylethylsulfinamido)propyl)-2-fluorophenyl)-4-methoxy-N1-methylpyrrolidine-1,2-dicarboxamide]
Ki: > 100 nM

CO[C@@H]1C[C@H](C(=O)Nc2cc(C(N)(CCC3CC3)c3cccc(C#N)c3)ccc2F)N(C(=O)N(C)c2ccc(Cl)cc2)C1 (stereo partly drawn) [Compound 6e, (2R,4R)-N2-(5-((−)-1-amino-1-(3-cyanophenyl)-3-cyclopropylpropyl)-2-fluorophenyl)-N1-(4-chlorophenyl)-4-methoxy-N1-methylpyrrolidine-1,2-dicarboxamide]
Ki: > 100 nM

CO[C@@H]1C[C@@H](C(=O)Nc2cc(C(N)(CCC3CC3)c3cccc(C#N)c3)ccc2F)N(C(=O)N(C)c2ccc(Cl)cc2)C1 (stereo partly drawn) [Compound 6f, (2S,4R)-N2-(5-((+)-1-amino-1-(3-cyanophenyl)-3-cyclopropylpropyl)-2-fluorophenyl)-N1-(4-chlorophenyl)-4-methoxy-N1-methylpyrrolidine-1,2-dicarboxamide]
Ki: > 100 nM

CC(C)(C)[S@@+]([O-])NC(CCC1CC1)(c1cccc(C#N)c1)c1ccc(F)c(NC(=O)[C@H]2CCCN2C(=O)Nc2ccc(Cl)cc2)c1 (stereo partly drawn) [Compound 7b, (R)-N1-(4-chlorophenyl)-N2-(5-((+)-1-(3-cyanophenyl)-3-cyclopropyl-1-((R)-1,1-dimethylethylsulfinamido)propyl)-2-fluorophenyl)pyrrolidine-1,2-dicarboxamide]
Ki: > 100 nM

N#Cc1cccc(C(N)(CCC2CC2)c2ccc(F)c(NC(=O)[C@H]3CCCN3C(=O)Nc3ccc(Cl)cc3)c2)c1 (stereo partly drawn) [Compound 7c, (R)-N2-(5-((+)-1-amino-1-(3-cyanophenyl)-3-cyclopropylpropyl)-2-fluorophenyl)-N1-(4-chlorophenyl)pyrrolidine-1,2-dicarboxamide]
Ki: > 100 nM

CC(C)(C)[S@@+]([O-])NC(CCC1CC1)(c1cccc(C#N)c1)c1ccc(F)c(NC(=O)[C@@H]2CCCN2C(=O)Nc2ccc(Cl)cc2)c1 (stereo partly drawn) [Compound 8b, (S)-N1-(4-chlorophenyl)-N2-(5-((−)-1-(3-cyanophenyl)-3-cyclopropyl-1-((R)-1,1-dimethylethylsulfinamido)propyl)-2-fluorophenyl)pyrrolidine-1,2-dicarboxamide]
Ki: > 100 nM

N#Cc1cccc(C(N)(CCC2CC2)c2ccc(F)c(NC(=O)[C@@H]3CCCN3C(=O)Nc3ccc(Cl)cc3)c2)c1 (stereo partly drawn) [Compound 8c, (S)-N2-(5-((−)-1-amino-1-(3-cyanophenyl)-3-cyclopropylpropyl)-2-fluorophenyl)-N1-(4-chlorophenyl)pyrrolidine-1,2-dicarboxamide]
Ki: > 100 nM

CC(C)(C)[S@@+]([O-])NC(CCC1CC1)(c1cccc(C#N)c1)c1ccc(F)c(NC(=O)[C@H]2C[C@H](O)CN2C(=O)Nc2ccc(Cl)cc2)c1 (stereo partly drawn) [Compound 9b, (2R,4S)-N1-(4-chlorophenyl)-N2-(5-((+)-1-(3-cyanophenyl)-3-cyclopropyl-1-((R)-1,1-dimethylethylsulfinamido)propyl)-2-fluorophenyl)-4-hydroxypyrrolidine-1,2-dicarboxamide]
Ki: > 100 nM

N#Cc1cccc(C(N)(CCC2CC2)c2ccc(F)c(NC(=O)[C@H]3C[C@H](O)CN3C(=O)Nc3ccc(Cl)cc3)c2)c1 (stereo partly drawn) [Compound 9c, (2R,4S)-N2-(5-((+)-1-amino-1-(3-cyanophenyl)-3-cyclopropylpropyl)-2-fluorophenyl)-N1-(4-chlorophenyl)-4-hydroxypyrrolidine-1,2-dicarboxamide]
Ki: > 100 nM

CC(C)(C)[S@@+]([O-])NC(CCC1CC1)(c1cccc(C#N)c1)c1ccc(F)c(NC(=O)[C@@H]2C[C@H](O)CN2C(=O)Nc2ccc(Cl)cc2)c1 (stereo partly drawn) [Compound 10b, (2S,4S)-N1-(4-chlorophenyl)-N2-(5-((−)-1-(3-cyanophenyl)-3-cyclopropyl-1-((R)-1,1-dimethylethylsulfinamido)propyl)-2-fluorophenyl)-4-hydroxypyrrolidine-1,2-dicarboxamide]
Ki: > 100 nM
